This experiment has as its target T1, human mAChR M4 (Homo sapiens, UniProt P08173).
T1 construct: expressed in transfected cells; host or cells: CHO-K1 (ATCC), stably expressing hM4 and Gqi5
T1 sequence (P08173 1-479): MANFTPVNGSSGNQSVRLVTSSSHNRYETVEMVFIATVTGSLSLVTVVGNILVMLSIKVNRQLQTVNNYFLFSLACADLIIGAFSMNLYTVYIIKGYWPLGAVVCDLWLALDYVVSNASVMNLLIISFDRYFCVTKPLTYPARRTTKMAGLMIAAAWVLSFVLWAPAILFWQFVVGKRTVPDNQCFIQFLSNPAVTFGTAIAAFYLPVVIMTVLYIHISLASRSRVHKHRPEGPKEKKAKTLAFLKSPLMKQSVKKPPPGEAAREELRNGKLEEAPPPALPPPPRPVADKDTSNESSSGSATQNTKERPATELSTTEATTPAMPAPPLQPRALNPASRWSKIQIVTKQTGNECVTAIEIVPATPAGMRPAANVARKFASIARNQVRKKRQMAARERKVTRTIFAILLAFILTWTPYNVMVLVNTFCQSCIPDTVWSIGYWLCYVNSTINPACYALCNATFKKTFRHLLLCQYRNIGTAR
The experiment in a line: mAChR M4 cell-based functional assay: calcium flux (Fluo-4, FDSS), positive allosteric modulator activity on the EC20 acetylcholine response, hM4-Gqi5 CHO-K1 cells. Set-up: Emax: dose or concentration left out as unconfirmed. The settings on record: for EC50: PAM activity on EC20 acetylcholine response, calcium flux; for Emax at 30 µM: CHO-K1, human M4, % ACh maximum at 30 μM. The method, boiled down:
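CHO-K1 cells stably expressing human M4 with chimeric Gqi5, loaded with Fluo-4 AM for 50 min at 37° C. Compounds (11-point, 1:3 dilutions) added first, then an acetylcholine EC20 at 144 s; calcium read on FDSS at 1 Hz. EC50 is the half-maximal increase above the EC20 baseline, four-parameter logistic fit.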
Background: Calcium flux is commonly read through the fluorescence of an indicator in the cells.

Where [1] appears, read: human M4, read-out: Human M4 EC50.

This note sets out measurements from patent US20250026752A1, “POSITIVE ALLOSTERIC MODULATORS OF THE MUSCARINIC ACETYLCHOLINE RECEPTOR M4” (Vanderbilt University, priority 2021, published 2025).

Read-outs that look alike come from different tables or passages of the source. Where only a bound is given, the exact number is not on record here.

With `Fc1ccc2ncnc(N3CCc4ncc(-n5cccn5)cc4C3)c2c1` [Compound 68, 6-fluoro-4-(3-pyrazol-1-yl-7,8-dihydro-5H-1,6-naphthyridin-6-yl)quinazoline], the Emax (CHO-K1) was determined as 88%. Moreover, the EC50 (Human M4 EC50, human M4) came out at 220 nM.

For the molecule `CN(C)c1ccc(-c2cnc3c(c2)CN(c2ncnc4ccc(Cl)cc24)CC3)cn1` [Compound 41, 5-[6-(6-chloroquinazolin-4-yl)-7,8-dihydro-5H-1,6-naphthyridin-3-yl]-N,N-dimethyl-pyridin-2-amine], the maximal response (Emax) at 30 µM was 74%. The EC50 under setting [1] was 430 nM.

For `COc1ccc2nc(C)nc(N3CCc4ncc(-c5cc(F)ccc5C)cc4C3)c2c1` [Compound 313, 4-(3-(5-fluoro-2-methylphenyl)-7,8-dihydro-1,6-naphthyridin-6(5H)-yl)-6-methoxy-2-methylquinazoline], the Emax at 30 µM was 52%. Besides, the EC50 under setting [1] is 4360 nM.

`Fc1cc2ncnc(N3CCc4ncc(-c5ccnn5C5COC5)cc4C3)c2cc1F` [Compound 269, 6,7-difluoro-4-(3-(1-(oxetan-3-yl)-1H-pyrazol-5-yl)-7,8-dihydro-1,6-naphthyridin-6(5H)-yl)quinazoline]: the Emax at 30 µM is 79%. Besides, the EC50 under setting [1] was 1600 nM.

Consider `Fc1ccc2nc(C3CC3)nc(N3CCc4ncc(N5CCCn6nccc65)cc4C3)c2c1` [Compound 194, 2-cyclopropyl-4-[3-(6,7-dihydro-5H-pyrazolo[1,5-a]pyrimidin-4-yl)-7,8-dihydro-5H-1,6-naphthyridin-6-yl]-6-fluoro-quinazoline], for which the Emax at 30 µM was found to be 10%. For the same molecule, the EC50 under setting [1] turned out to be 230 nM.

Turning to `Cn1nccc1Nc1cnc2c(c1)CN(c1nc(NC3CCCOC3)nc3ccc(F)cc13)CC2` (stereo not drawn) [Compound 213, 6-fluoro-4-[3-[(2-methylpyrazol-3-yl)amino]-7,8-dihydro-5H-1,6-naphthyridin-6-yl]-N-tetrahydropyran-3-yl-quinazolin-2-amine], the Emax at 30 µM turned out to be 86%. In addition, the EC50 under setting [1] stood at 490 nM.

As to `Fc1cc2ncnc(N3CCc4ncc(C(F)(F)F)cc4C3)c2cc1F` [Compound 151, 6,7-difluoro-4-[3-(trifluoromethyl)-7,8-dihydro-5H-1,6-naphthyridin-6-yl]quinazoline], the Emax at 30 µM stood at 102%. Moreover, under setting [1], the half-maximal effective concentration (EC50) amounted to 110 nM.

As for `COc1ccc2ncnc(N3CCc4ncc(-c5cnc(F)cc5C)cc4C3)c2c1` [Compound 308, 4-(3-(6-fluoro-4-methylpyridin-3-yl)-7,8-dihydro-1,6-naphthyridin-6(5H)-yl)-6-methoxyquinazoline], the Emax at 30 µM was determined as 71%. Also, the EC50 under setting [1] turned out to be 110 nM.

Turning to `Fc1ccc2ncnc(N3CCc4ncc(N5CCOc6ncccc65)cc4C3)c2c1` [Compound 76, 1-[6-(6-fluoroquinazolin-4-yl)-7,8-dihydro-5H-1,6-naphthyridin-3-yl]-2,3-dihydropyrido[2,3-b][1,4]oxazine], the Emax at 30 µM was determined as 98%. Also, the EC50 under setting [1] came out at 30 nM.

For `Cc1nc(N2CCc3ncc(C(F)(F)F)cc3C2)c2cc(C#N)ccc2n1` [Compound 142, 2-methyl-4-[3-(trifluoromethyl)-7,8-dihydro-5H-1,6-naphthyridin-6-yl]quinazoline-6-carbonitrile], the Emax at 30 µM was found to be 105%. In addition, the EC50 under setting [1] worked out at 260 nM.

For the molecule `Cc1nc(N2CCc3ncc(C(F)(F)F)cc3C2)c2cc(F)ccc2n1` [Compound 130, 6-fluoro-2-methyl-4-[3-(trifluoromethyl)-7,8-dihydro-5H-1,6-naphthyridin-6-yl]quinazoline], the Emax at 30 µM worked out at 86%. For the same molecule, the half-maximal effective concentration (EC50) under setting [1] stood at 80 nM.

Take `Cc1ccc2nc(C3CC3)nc(N3CCc4ncc(-c5cn(C)nc5C)cc4C3)c2c1` [Compound 176, 2-cyclopropyl-4-[3-(1,3-dimethylpyrazol-4-yl)-7,8-dihydro-5H-1,6-naphthyridin-6-yl]-6-methyl-quinazoline]: the Emax at 30 µM came to 73%. For the same molecule, under setting [1], the EC50 was determined as 740 nM.

On to `FC(F)(F)c1ccc2nc(N3CCc4ncc(C5CC5)cc4C3)nc(N3CCc4ncc(C5CC5)cc4C3)c2c1` [Compound 163, 2,4-bis(3-cyclopropyl-7,8-dihydro-5H-1,6-naphthyridin-6-yl)-6-(trifluoromethyl)quinazoline], for which the maximum response (Emax) at 30 µM worked out at 57%. Besides, under setting [1], the EC50 is over 10000 nM.

On to `Cc1nc(N2Cc3cc(C(F)(F)F)cnc3C(C)C2)c2cc(F)ccc2n1` (stereo not drawn) [Compound 157, 6-fluoro-2-methyl-4-[8-methyl-3-(trifluoromethyl)-7,8-dihydro-5H-1,6-naphthyridin-6-yl]quinazoline], for which the maximal effect (Emax) at 30 µM was determined as 95%. Besides, the EC50 under setting [1] was 220 nM.

In the case of `Fc1cccc(Oc2cnc3c(c2)CN(c2ncnc4cc(F)c(F)cc24)CC3)c1` [Compound 159, 6,7-difluoro-4-[3-(3-flurophenoxy)-7,8-dihydro-5H-1,6-naphthyridin-6-yl]quinazoline], the Emax at 30 µM amounted to 81%. Further, the EC50 under setting [1] stood at 680 nM.

On to `Cc1nc(N2CCc3ncc(-c4cnn(C5CC5)c4)cc3C2)c2cc(C(F)(F)F)ccc2n1` [Compound 59, 4-[3-(1-cyclopropylpyrazol-4-yl)-7,8-dihydro-5H-1,6-naphthyridin-6-yl]-2-methyl-6-(trifluoromethyl)quinazoline], for which the Emax at 30 µM turned out to be 58%. The EC50 under setting [1] stood at 1970 nM.

`Cc1cc(F)c(F)cc1-c1cnc2c(c1)CN(c1ncnc3ccc(F)cc13)CC2` [Compound 306, 4-(3-(4,5-difluoro-2-methylphenyl)-7,8-dihydro-1,6-naphthyridin-6(5H)-yl)-6-fluoroquinazoline]: the Emax at 30 µM turned out to be 69%. Also, the half-maximal effective concentration (EC50) under setting [1] was 5500 nM.

Turning to `OC1(C2CC2)CN(c2nc(N3CCc4ncc(N5CCCn6nccc65)cc4C3)c3cccnc3n2)C1` [Compound 248, 3-cyclopropyl-1-(4-(3-(6,7-dihydropyrazolo[1,5-a]pyrimidin-4(5H)-yl)-7,8-dihydro-1,6-naphthyridin-6(5H)-yl)pyrido[2,3-d]pyrimidin-2-yl)azetidin-3-ol], the Emax at 30 µM is 82%. Moreover, under setting [1], the EC50 was 300 nM.

`CC1(C)CN(c2nc(N3CCc4ncc(N5CCCn6nccc65)cc4C3)c3cccnc3n2)CCO1` [Compound 249, 4-(4-(3-(6,7-dihydropyrazolo[1,5-a]pyrimidin-4(5H)-yl)-7,8-dihydro-1,6-naphthyridin-6(5H)-yl)pyrido[2,3-d]pyrimidin-2-yl)-2,2-dimethylmorpholine]: the Emax at 30 µM is 47%. Further, the EC50 under setting [1] was found to be 810 nM.

For the molecule `Cc1nc(N2CCc3ncc(-c4cc(F)ccc4C)cc3C2)c2cc(Cl)ccc2n1` [Compound 303, 6-chloro-4-(3-(5-fluoro-2-methylphenyl)-7,8-dihydro-1,6-naphthyridin-6(5H)-yl)-2-methylquinazoline], the Emax at 30 µM worked out at 91%. Besides, the EC50 under setting [1] was 9200 nM.

Consider `Fc1ccc2ncnc(N3CCc4ncc(N5CCCn6ccnc65)cc4C3)c2c1` [Compound 275, 4-(3-(6,7-dihydroimidazo[1,2-a]pyrimidin-8(5H)-yl)-7,8-dihydro-1,6-naphthyridin-6(5H)-yl)-6-fluoroquinazoline], for which the Emax at 30 µM is 73%. Further, the EC50 under setting [1] came out at 2240 nM.

With `Cc1ccc2ncnc(N3CCc4ncc(C(F)(F)F)cc4C3)c2c1` [Compound 131, 6-methyl-4-[3-(trifluoromethyl)-7,8-dihydro-5H-1,6-naphthyridin-6-yl]quinazoline], the Emax at 30 µM came to 82%. Besides, under setting [1], the EC50 is 30 nM.

Regarding `OC1(C2CC2)CN(c2nc(N3CCc4ncc(C(F)(F)F)cc4C3)c3cc(F)ccc3n2)C1` [Compound 201, 3-cyclopropyl-1-[6-fluoro-4-[3-(trifluoromethyl)-7,8-dihydro-5H-1,6-naphthyridin-6-yl]quinazolin-2-yl]azetidin-3-ol], the Emax at 30 µM is 97%. Also, under setting [1], the concentration giving a half-maximal response (EC50) turned out to be 290 nM.

Regarding `Fc1ccc2ncnc(N3CCc4ncc(Oc5ccccc5F)cc4C3)c2c1` [Compound 113, 6-fluoro-4-[3-(2-fluorophenoxy)-7,8-dihydro-5H-1,6-naphthyridin-6-yl]quinazoline], the maximal effect (Emax) at 30 µM was 69%. Also, under setting [1], the EC50 was determined as 160 nM.

For `Cc1nc(N2CCc3ncc(-c4ccc(C5CC5)nc4)cc3C2)c2cc(F)ccc2n1` [Compound 25, 4-[3-(6-cyclopropyl-3-pyridyl)-7,8-dihydro-5H-1,6-naphthyridin-6-yl]-6-fluoro-2-methyl-quinazoline], the maximum response (Emax) at 30 µM amounted to 96%. The EC50 under setting [1] was found to be 310 nM.

For `Cc1ccc2ncnc(N3CCc4ncc(-c5cc(F)ccc5C)cc4C3)c2c1` [Compound 299, 4-(3-(5-fluoro-2-methylphenyl)-7,8-dihydro-1,6-naphthyridin-6(5H)-yl)-6-methylquinazoline], the Emax at 30 µM amounted to 94%. The EC50 under setting [1] worked out at 1200 nM.

With `Fc1cc2ncnc(N3CCc4ncc(-c5cnn(C6CC6)c5)cc4C3)c2cc1F` [Compound 54, 4-[3-(1-cyclopropylpyrazol-4-yl)-7,8-dihydro-5H-1,6-naphthyridin-6-yl]-6,7-difluoro-quinazoline], the maximal response (Emax) at 30 µM came to 85%. Further, under setting [1], the EC50 was 200 nM.

Usually Emax stands for the size of the effect at its maximum, as opposed to the concentration needed. By EC50 is commonly meant the concentration that produces a half-maximal response.
